In patent US4560679A, “Organosilicon compounds and antitumor agents containing the compound as effective component” (Sanwa Kagaku Kenkyusho Co. Ltd., priority 1982, dated 1985):
In brackets after ≈: the same amount, converted by molar mass. Where two headings read alike, the source gives them in different places.

Tests used:
[1] = acute toxicity; conditions: mouse, in vivo, ICR female mice, observed 7 days
Text: Each of compounds according to the invention was suspended in 0.1% P-1570 aqueous solution of sugar ester or 0.5% CMC aqueous solution. The suspension abdominally or orally dosed to ICR female mice (weight: 20±1 g).

[2] = system: Lewis lung carcinoma (LLC); experiment: proliferation inhibiting effect in explantation (LLC); type: cell-based; conditions: 72 h, 3 days culture with compound, living cells by dye-exclusion (tripan blue)
Method: (§1) Test 1 (proliferation inhibiting effect in explantation)
(§2) Following carcinomata are employed.
(1) Lewis lung carcinoma (hereinafter referred to as "LLC"),
(§3) 1×10^5 cells of each carcinoma are cultured for 24 hours in an ox serum eagle culture solution with use of a culture test tube and a carbon dioxide gas culturing device (5% CO2, 37° C.). After 24 hours, the used culture solution was flowed-out and each 0.1 ml of a freshly prepared culture solution containing a compound according to the invention was added to further continue the culture for 3 days. After completion of the culture, number of living cells was measured with use of a dye-exclusion method due to tripan blue dying. To each of control groups, 0.1 ml of the same culture solution but containing no compound according to the invention was added.
(§4) Concentrations on 50% inhibition of the carcinoma cells (IC50) were determined between the testing groups and control groups, according to the manner as stated above.

[3] = system: Ehrlich ascites carcinoma (EAC); experiment: proliferation inhibiting effect in explantation (EAC); type: cell-based; conditions: 72 h, 3 days culture with compound, living cells by dye-exclusion (tripan blue)
Method: as §1, §2
(§5) (2) Ehrlich ascites carcinoma (hereinafter referred to as "EAC"),
as §3, §4

[4] = system: K.B. carcinoma (KB); experiment: proliferation inhibiting effect in explantation (KB); type: cell-based; conditions: 72 h, 3 days culture with compound, living cells by dye-exclusion (tripan blue)
Method: as §1, §2
(3) K.B. carcinoma (hereinafter referred to as "KB"), and
as §3, §4

[5] = system: B-16 melanoma carcinoma (B-16); experiment: proliferation inhibiting effect in explantation (B-16); type: cell-based; conditions: Mus musculus, B16, 72 h, 3 days culture with compound, living cells by dye-exclusion (tripan blue)
Method: as §1, §2
(§6) (4) B-16 melanoma carcinoma (hereinafter referred to as "B-16").
as §3, §4

[6] = system: B-16 melanoma carcinoma (B-16); experiment: carcinoma cell weight inhibiting effect in mice (B-16); type: in vivo; conditions: BDF mice; oral, 1/5 LD50 one time/day for 5 days; 21 days from final dosage
Text: as §6
(§7) Test 2 (carcinoma cell weight inhibiting effect in mice)
(§8) B-16 and EAC were given to BDF and ICR-CD mice, respectively by a hypodermic injection. 1.0×10^5 cells on B-16 and 5.0×10^6 cells on EAC were given to each mouse. Each of the compounds according to the invention was orally dosed for 5 days in an amount of 1/5 LD50 (one time/day). After lapsed 21 days from the final dosage, the carcinoma of each mouse was exenterated, measured its weight and calculated a mean weight as the inhibiting ratio which is shown in the following Table.

[7] = system: Ehrlich ascites carcinoma (EAC); experiment: carcinoma cell weight inhibiting effect in mice (EAC); type: in vivo; conditions: ICR-CD mice; oral, 1/5 LD50 one time/day for 5 days; 21 days from final dosage
Text: as §5, §7, §8

[8] = ip, abdominal dosage, read-out: Acute Toxicity LD50, Abdominal Dosage
[9] = oral dosage, read-out: Acute Toxicity LD50, Oral Dosage

SMILES: CNCCSCC[Si](C)(C)C [SKK-009]
- LD50 at 168 h [1, 8]: 189 mg/kg
- LD50 at 168 h [1, 9]: 800 mg/kg

SMILES: C[Si](C)(C)CCSCCNC1CCCCC1 [SKK-010]
- LD50 at 168 h [1, 8]: 152 mg/kg
- LD50 at 168 h [1, 9]: 825 mg/kg

SMILES: C=CCNCCSCC[Si](C)(C)C [SKK-011]
- LD50 at 168 h [1, 8]: 134 mg/kg
- LD50 at 168 h [1, 9]: 846 mg/kg

SMILES: C[Si](C)(C)CCSCCNC(=O)c1ccccc1 [SKK-012]
- IC50 [2]: 4.3 µg/mL (≈ 15.3 µM)
- IC50 [3]: 15 µg/mL (≈ 53.3 µM)
- IC50 [4]: 17 µg/mL (≈ 60.4 µM)
- IC50 [5]: 16 µg/mL (≈ 56.8 µM)
- inhibiting ratio (carcinoma weight), B-16 [6]: 62
- inhibiting ratio (carcinoma weight), EAC [7]: 76
- LD50 at 168 h [1, 8]: 1190 mg/kg
- LD50 at 168 h [1, 9]: > 2000 mg/kg

SMILES: C[Si](C)(C)CCSCCNC(=O)c1cccnc1 [SKK-021]
- IC50 [2]: 5 µg/mL (≈ 17.7 µM)
- IC50 [3]: 12 µg/mL (≈ 42.5 µM)
- IC50 [4]: 10 µg/mL (≈ 35.4 µM)
- IC50 [5]: < 5 µg/mL
- inhibiting ratio (carcinoma weight), B-16 [6]: 93
- inhibiting ratio (carcinoma weight), EAC [7]: 70
- LD50 at 168 h [1, 8]: < 500 mg/kg
- LD50 at 168 h [1, 9]: > 2000 mg/kg

SMILES: C[Si](C)(C)CCSCCNC(=O)c1ccco1 [SKK-022]
- IC50 [2]: 9 µg/mL (≈ 33.2 µM)
- IC50 [3]: 15 µg/mL (≈ 55.3 µM)
- IC50 [4]: 17 µg/mL (≈ 62.6 µM)
- IC50 [5]: 20 µg/mL (≈ 73.7 µM)
- inhibiting ratio (carcinoma weight), B-16 [6]: 58
- inhibiting ratio (carcinoma weight), EAC [7]: 65
- LD50 at 168 h [1, 8]: < 1000 mg/kg
- LD50 at 168 h [1, 9]: > 2000 mg/kg

SMILES: C[Si](C)(C)CCSCCNC(=O)c1cccs1 [SKK-023]
- LD50 at 168 h [1, 8]: > 1000 mg/kg
- LD50 at 168 h [1, 9]: > 2000 mg/kg

SMILES: C[Si](C)(C)CCSCCNC(=O)c1cccc2ccccc12 [SKK-024]
- IC50 [2]: 13 µg/mL (≈ 39.2 µM)
- IC50 [3]: 18 µg/mL (≈ 54.3 µM)
- IC50 [4]: 14 µg/mL (≈ 42.2 µM)
- IC50 [5]: 25 µg/mL (≈ 75.4 µM)
- inhibiting ratio (carcinoma weight), B-16 [6]: 60
- inhibiting ratio (carcinoma weight), EAC [7]: 62
- LD50 at 168 h [1, 8]: > 2000 mg/kg
- LD50 at 168 h [1, 9]: > 3000 mg/kg

SMILES: CC(=O)NCCSCC[Si](C)(C)C [SKK-025]
- LD50 at 168 h [1, 8]: ~100 mg/kg
- LD50 at 168 h [1, 9]: 1000 to 2000 mg/kg

SMILES: C[Si](C)(C)CCSCCNC(=O)C1CCCCC1 [SKK-026]
- LD50 at 168 h [1, 8]: 500 to 1000 mg/kg
- LD50 at 168 h [1, 9]: 1000 to 2000 mg/kg

SMILES: CCCCCCCC(=O)NCCSCC[Si](C)(C)C [SKK-027]
- LD50 at 168 h [1, 8]: 2000 to 3000 mg/kg
- LD50 at 168 h [1, 9]: > 3000 mg/kg

SMILES: Cc1ccc(S(=O)(=O)NCCSCC[Si](C)(C)C)cc1 [SKK-028]
- IC50 [2]: 14 µg/mL (≈ 42.2 µM)
- IC50 [3]: 30 µg/mL (≈ 90.5 µM)
- IC50 [4]: 10 µg/mL (≈ 30.2 µM)
- IC50 [5]: 14 µg/mL (≈ 42.2 µM)
- inhibiting ratio (carcinoma weight), B-16 [6]: 85
- inhibiting ratio (carcinoma weight), EAC [7]: 55
- LD50 at 168 h [1, 8]: > 2500 mg/kg
- LD50 at 168 h [1, 9]: > 3000 mg/kg
